Assay [1] addresses T1, trypsin-like site of 26S proteasomes (Oryctolagus cuniculus, UniProt G1SWK8).
T1 construct: IC50 for sites in 26S proteasomes: Tr-L; other: purified 26S proteasomes; other: 26S proteasomes from rabbit muscles
T1 sequence (G1SWK8 1-271): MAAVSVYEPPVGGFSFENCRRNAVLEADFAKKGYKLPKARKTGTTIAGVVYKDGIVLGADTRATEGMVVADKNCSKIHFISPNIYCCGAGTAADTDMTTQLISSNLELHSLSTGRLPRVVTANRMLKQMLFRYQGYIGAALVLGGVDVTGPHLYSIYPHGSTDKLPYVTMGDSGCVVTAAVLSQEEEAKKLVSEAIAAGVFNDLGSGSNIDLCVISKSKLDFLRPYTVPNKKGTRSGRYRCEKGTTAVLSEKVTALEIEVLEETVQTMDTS
Briefly: Inhibition of purified 26S proteasomes, substrate Ac-RLR-amc. It is filed as biochemical, rabbit.

Assay [2] concerns trypsin-like site of 26S proteasomes. The description is as above. It is filed as biochemical, rabbit. The settings on record: rabbit 26S proteasomes.
The target of assay [3] is T2, chymotrypsin-like site of 26S proteasomes (Oryctolagus cuniculus, UniProt G1T4Q9).
T2 sequence (G1T4Q9 1-263): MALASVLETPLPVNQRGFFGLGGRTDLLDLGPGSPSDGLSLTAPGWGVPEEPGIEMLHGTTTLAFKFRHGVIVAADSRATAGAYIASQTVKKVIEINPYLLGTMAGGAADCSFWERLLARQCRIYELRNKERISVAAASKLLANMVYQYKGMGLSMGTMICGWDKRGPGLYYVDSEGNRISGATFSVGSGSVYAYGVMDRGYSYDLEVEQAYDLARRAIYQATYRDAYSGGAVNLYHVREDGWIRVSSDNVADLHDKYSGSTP
Briefly: Inhibition of purified 26S proteasomes, substrate Suc-LLVY-amc. Format: biochemical, rabbit. Conditions: >>30 no inhibition at 30 μM, >30 inhibition between 10 and 50% at 30 μM, read-out: IC50 for sites in 26S proteasomes: Chym-L. How it is done: (§1) 26S proteasomes were purified from rabbit muscle using known methods (Screen, et al. (2010) supra). […] NOVEX Bis-Tris gels (12%, Invitrogen) with MOPS running buffer were used for electrophoretic separation of catalytic subunits modified by active-site probes. Inhibition of active sites inside cells was assayed using luminescent PROTEASOMEGLO assay (Promega; Moravec, et al. (2009) Anal. Biochem. 387:294-302) according to known methods (Britton, et al. (2009) supra).

Assay [4] deals with caspase-like site of 26S proteasomes (Oryctolagus cuniculus, UniProt A0A5F9DQW2). In words: Inhibition of purified 26S proteasomes, substrate Ac-nLPnLD-amc. Format: biochemical, rabbit. Conditions: >>30 no inhibition at 30 μM, >30 inhibition between 10 and 50% at 30 μM, read-out: IC50 for sites in 26S proteasomes: Casp-L. How it is done:
as §1

The target of another assay is T3, β5 proteasome subunit (Homo sapiens, UniProt P20618+P28074).
T3 construct: Whole cell lysates of HEK-293T or EL-4 cells were made by sonication; endogenous in cells; host or cells: HEK-293T
Briefly: Competition assay in HEK-293T cell lysate with MV151. It is filed as biochemical. The settings on record: HEK293 extracts. How it is done:
Whole cell lysates of HEK-293T or EL-4 cells were made by sonication in 3 volumes of lysis buffer containing 50 mM Tris pH 7.5, 1 mM DTT, 5 mM MgCl2, 250 mM sucrose, 2 mM ATP, 0.025% digitonin. Protein concentration was determined by the Bradford assay. Cell lysates (13.5 μg total protein for HEK lysates and 9 μg total protein for EL-4 lysates) were exposed to the inhibitors for 1 hour at 37° C. prior to incubation with MV151 (0.5 μM) or BODIPY-TMR-epoxomicin (0.5 μM) for an additional 1 hour at 37° C. Reaction mixtures were boiled with Laemmli's buffer containing (3-mercaptoethanol for 5 minutes before being resolved by 12.5% SDS-PAGE. In-gel detection of residual proteasome activity was performed in the wet gel slabs directly on the TYPHOON Variable Mode Imager (Amersham Biosciences) using the Cy3/Tamra settings (λex 532 nm, λem 560 nm) to detect MV151, BODIPY-TMR-epoxomicin and Cy2/Fam settings (λex 488 nm, λem 520 nm) to detect compounds 39 and 59.
The inhibition potential of the inhibitors for each of the catalytically active subunits was assessed in competition assays employing extracts of human embryonic kidney cells (HEK-293T) and mouse lymphoma cells (EL-4) in combination with the fluorescent broad spectrum proteasome probe MV151 (Verdoes, et al. (2006) Chem. Biol. 13:1217-1226). Competitive inhibition of a proteasome active site is reflected by the disappearance of the corresponding band on a gel.

Assay [5] addresses T4, trypsin-like sites (β2) of proteasome in MM cells (Homo sapiens, UniProt Q99436).
T4 construct: endogenous in cells; host or cells: NCI-H929, RPMI-8226 and other MM cell lines
T4 sequence (Q99436 44-277): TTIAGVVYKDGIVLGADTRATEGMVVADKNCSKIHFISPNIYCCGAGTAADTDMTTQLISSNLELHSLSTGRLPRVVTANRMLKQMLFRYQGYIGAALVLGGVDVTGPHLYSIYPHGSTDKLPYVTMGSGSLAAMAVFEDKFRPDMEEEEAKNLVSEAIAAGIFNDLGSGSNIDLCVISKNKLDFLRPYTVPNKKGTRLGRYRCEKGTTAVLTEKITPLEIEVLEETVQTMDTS
Briefly: PROTEASOMEGLO assay of proteasome inhibition in MM cells. It is filed as cell-based. The settings on record: NCI-H929 cells treated overnight. How it is done: Proteasome inhibition in MM cells was measured with luminogenic substrates using PROTEASOMEGLO assay (Promega). […] An aliquot of culture was pelleted and medium was removed and replaced with PBS. The resulting cell suspension was mixed with luminogenic substrates in the manufacturer-provided lysis/assay buffer. After 3 minutes mixing on an orbital shaker, the plate was incubated in the dark for additional 17 minutes, followed by the measurements of the luminescence, performed in triplicate for each substrate/data point. Data were analyzed as for purified proteasomes. […] Cells (1×10^6 per well of a 6-well plate) were incubated with the inhibitors for 4 hours at 37° C. and this was followed by a 2 hour incubation with 5 μM BODIPY-TMR-epoxomicin. Subsequently, the medium was removed and the cells were washed with PBS and harvested. […] The supernatant was collected and the protein concentration was determined by the Bradford assay, and used to normalize gel loading. The samples were analysed by SDS-PAGE and fluorescent densitometry as described for competition experiment in cell lysates. IC50 values were calculated from three independent experiments using […] PRISM software.

The subject of a further assay is β2 and β2i sites. In words: MV-151 label-competition in extracts of RPMI-8226 MM cells. It is filed as biochemical. Conditions: extracts of RPMI-8226 cells, MV-151 probe. An excerpt:
Multiple myeloma cells express constitutive proteasomes and immunoproteasomes, and substrates used for the measurement of activity were cleaved by both. To determine whether there were any differences in inhibition of constitutive proteasomes or immunoproteasomes by NC-002, NC-012, and NC-022, the fluorescent activity-based probe MV-151 (Verdoes, et al. (2006) Chem. Biol. 13:1217-1226) was used in a label-competition experiment. Extracts of RPMI-8226 MM cells (which express more immunoproteasomes than NCI-H929 cells) were treated first with the NC inhibitors and then with the MV-151 probe. This was followed by fractionation on SDS-PAGE to separate proteasome subunits and imaging to reveal those subunits labeled by the probe (i.e., unmodified by the inhibitors).

Entries after “also recorded” stand apart in the source; their conditions may differ. Where a name gives a salt, the structure may show the parent alone.

Sequence of caspase-like site of 26S proteasomes (A0A5F9DQW2 1-212): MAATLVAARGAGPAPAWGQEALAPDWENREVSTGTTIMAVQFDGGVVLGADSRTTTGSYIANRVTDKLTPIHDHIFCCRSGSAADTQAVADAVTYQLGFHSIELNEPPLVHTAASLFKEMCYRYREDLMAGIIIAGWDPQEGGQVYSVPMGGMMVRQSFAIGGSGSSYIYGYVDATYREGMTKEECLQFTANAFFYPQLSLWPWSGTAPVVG

For `CC(C)C[C@@H](/C=C/S(C)(=O)=O)NC(=O)[C@H](CC(C)C)NC(=O)[C@H](Cc1ccc(N)cc1)NC(=O)[C@H](Cc1ccccc1)N=[N+]=[N-]` [Compound 56, N3-Phe-Phe(4-NH2-TFA)-Leu-Leu-VS], the IC50 was 24 µM in assay [1] (purified 26S proteasomes, >>30 no inhibition at 30 μM, >30 inhibition between 10 and 50% at 30 μM, read-out: IC50 for sites in 26S proteasomes: Tr-L); less than 0.004 µM in assay [3]; greater than 30 µM in assay [4]. Besides, the “IC50 (Chym-L)/IC50 (Tr-L)” value in assay [2] is recorded as less than 0.00017. In addition, the “inhibition of chymotrypsin-like sites in extracts versus purified proteasomes” value at β5 proteasome subunit was “less potently and selectively in extracts than in purified proteasomes”.

Consider `CC(=O)N[C@@H](CCCNC(=N)N)C(=O)N[C@@H](CC(C)C)C(=O)N[C@@H](CCCNC(=N)N)C(=O)[C@@]1(C)CO1` [NC-012, Ac-Arg-Leu-Arg-ek], for which, in assay [1] (26S proteasomes from rabbit muscles), the “proteasome inhibitory potential on purified 26S proteasomes” value is “potent and specific inhibitors of the trypsin-like sites; also recorded: most potent and specific in the series”. The “inhibition of trypsin-like activity in live cells” value in assay [5] is “much higher concentrations”. For the same compound, the “inhibition of constitutive (β2) versus immunoproteasome (β2i) trypsin-like sites” value in the assay on β2 and β2i sites is “equipotent inhibitors of the trypsin-like sites of constitutive and immunoproteasomes”.

Usually IC50 stands for the concentration at which inhibition is half-maximal.
